Assays:
Assay type in all cases: physicochemical
[1] = repose angle measured by powder tester PT-E (fluidity of anhydrous D-allose crystals); settings: for Degree of fluidity: evaluated from repose angle according to Table 4
Protocol: The fluidity of the anhydrous D-allose crystals obtained by drying the hydrous crystals obtained in each of Tests Nos. 1 to 12 with an evaporator (30° C., 20 hPa (abs), about 2 hours) as described above was evaluated by the repose angle measured by a powder tester PT-E (manufactured by Hosokawa Micron Corporation). Specifically, a sample was dropped and deposited on a disk, and the inclination angle was measured from three directions to obtain an average value. From the average value, the degree of fluidity was evaluated according to Table 1 in the Japanese Pharmacopoeia, 17th edition, Reference Information G2 physical property-related “Powder Fluidity” (same as the so-called Carr's fluidity index table, shown as Table 4).
(§1) In order to measure the water content in the crystals obtained by each of the drying methods, drying under reduced pressure under conditions at 70° C. for 18 hours was performed to calculate the water content in the crystals from the weight loss through the drying under reduced pressure. The repose angle was measured by the method described above to determine the degree of fluidity. The yield rate was calculated by the following expression. Yield rate (%)=(D/C)×100 [Expression 4]

[2] = water content in crystals from weight loss on drying under reduced pressure at 70° C. for 18 hours; settings: hydrous D-allose crystals (purity 99.9%, water content 17.7%) dried under the named drying conditions
Protocol: as §1

[3] = particle size distribution by laser diffraction (Mastersizer 3000, dry dispersion unit Aero S); settings: average of 5 measurements, dispersion pressure 1.0 bar
Excerpt: The melting point (Tm) in the DSC refers to the melting start temperature of the endothermic peak obtained by DSC measurement (temperature at the extrapolated intersection of the base line and the maximum slope line of the endothermic peak), and the melting enthalpy (ΔH) refers to the area of the endothermic peak (ASTM D3418-15, Standard Test Method for Transition Temperatures and Enthalpies of Fusion and Crystallization of Polymers by Differential Scanning calorimetry). Further, in the present invention, the average particle size refers to the volume-based average particle size d[4,3], which is usually measured with a laser diffraction particle size distribution analyzer.
Next, the particle size distribution of the anhydrous D-allose crystals of the present invention was examined. Specifically, the anhydrous D-allose crystals obtained in the previous Test Nos. 1 to 5, 7 to 10 and 12, were subjected to measurement of particle size distribution under the measurement conditions shown in Table 7 using “Mastersizer 3000” and a “dry dispersion unit Aero S” manufactured by Malvern Instruments. More specifically, the measurement was repeated 5 times, and the average value of the 5 times measurements was used. No great variability was seen among the 5 times measurement values. The particle size distribution was expressed on a volume basis, and the volume-based average particle size d[4,3] and standard deviation σ were recorded. Also, the coefficient of variation CV=σ/d[4,3] was calculated in order to relatively evaluate the variation in the particle size distribution.

[4] = aspect ratio of crystals from microscopic picture (Digital microscope VHX-5000, 50x)
Excerpt: The “anhydrous D-allose crystals” of the present invention have an extremely large average particle size as described above and are not in a fine needle form, having a characteristic aspect ratio of the crystal. In the present invention, the aspect ratio refers to the ratio of the long diameter to the short diameter of a crystal (short diameter: minimum length of lines passing through the center of gravity of the plane shape of a crystal, long diameter: maximum length of a crystal measured orthogonal to the short diameter). In the present specification, the aspect ratio in a numerical range from A to B (A and B: arbitrary numbers) means that all of the aspect ratios of a specified number (preferably at least 10, for example 10) of crystal particles randomly selected are within the numerical range. Example of random selection of crystal particles includes a method comprising taking a microscopic picture of crystals at 20× to 50× magnification and, from the crystals on the diagonal line drawn from the upper left to the lower right of the microscopic picture taken, selecting 10 crystals with a full body shown in order from the upper left on the diagonal line. Specifically, the aspect ratio is preferably 1.0 to 10.0, more preferably 2.0 to 8.0, still more preferably 2.0 to 7.0. Next, the aspect ratio of the anhydrous D-allose crystals of the present invention was examined. Specifically, a microscopic picture of each of the anhydrous D-allose crystals obtained in the previous Test Nos. 1 to 5, 7 to 10 and 12 were taken using “Digital microscope VHX-5000” manufactured by KEYENCE Corporation (50×magnification). Among the crystals on the diagonal line drawn from the upper left to the lower right of the microscopic picture taken, 10 crystals with a full picture shown were selected in order from the upper left and then the long diameter and the short diameter of each crystal were measured for calculation of the aspect ratio (Long diameter/Short diameter, wherein short diameter refers to minimum length of lines passing through the center of gravity of the plane shape of a crystal, and long diameter refers to maximum length of a crystal measured orthogonal to the short diameter). The minimum value of the aspect ratio was 1.1 and the maximum value was 9.6 (Table 9).

[5] = drying tests of Table 6, crystals after the named drying conditions

Structure (SMILES): O=C[C@H](O)[C@H](O)[C@H](O)[C@H](O)CO [Conductive heat transfer drying at 40° C.] [D-allose]
- Repose angle (degrees) [1, 5]: 41.3 degrees
- Degree of fluidity ([1]; drying tests of Table 6): Passable (41~45)
- Water content (%) after drying [2]: 0.13%

Structure (SMILES): O=C[C@H](O)[C@H](O)[C@H](O)[C@H](O)CO [Conductive heat transfer drying at 50° C.] [D-allose]
- Repose angle (degrees) [1, 5]: 42 degrees
- Degree of fluidity ([1]; drying tests of Table 6): Passable (41~45)
- Water content (%) after drying [2]: 0.099%

Structure (SMILES): O=C[C@H](O)[C@H](O)[C@H](O)[C@H](O)CO [Conductive heat transfer drying at 60° C.] [D-allose]
- Repose angle (degrees) [1, 5]: 41.7 degrees
- Degree of fluidity ([1]; drying tests of Table 6): Passable (41~45)
- Water content (%) after drying [2]: 0.18%

Structure (SMILES): O=C[C@H](O)[C@H](O)[C@H](O)[C@H](O)CO [Test No. 7, D-allose]
- Repose angle (degrees) ([1]; anhydrous crystals of Test Nos. 1 to 12, hydrous crystals dried with evaporator (30° C., 20 hPa (abs), about 2 hours), average of three directions, listed as 7): 41.0 degrees
- Degree of fluidity ([1]; anhydrous crystals of Test Nos. 1 to 12): Passable (41~45)
- d [4, 3] (volume-based average particle size) ([3]; listed as 7): 549 μm
- Aspect ratio (Long diameter/Short diameter) ([4]; crystal ① of 10 selected, listed as 7): 7.2
- Aspect ratio (Long diameter/Short diameter) ([4]; crystal ② of 10 selected, listed as 7): 1.7
- Aspect ratio (Long diameter/Short diameter) ([4]; crystal ③ of 10 selected, listed as 7): 5.2
- Aspect ratio (Long diameter/Short diameter) ([4]; crystal ④ of 10 selected, listed as 7): 5.5
- Aspect ratio (Long diameter/Short diameter) ([4]; crystal ⑤ of 10 selected, listed as 7): 2.5
- Aspect ratio (Long diameter/Short diameter) ([4]; crystal ⑥ of 10 selected, listed as 7): 4.1
- Aspect ratio (Long diameter/Short diameter) ([4]; crystal ⑦ of 10 selected, listed as 7): 4.3
- Aspect ratio (Long diameter/Short diameter) ([4]; crystal ⑧ of 10 selected, listed as 7): 4.9
- Aspect ratio (Long diameter/Short diameter) ([4]; crystal ⑨ of 10 selected, listed as 7): 3.5
- Aspect ratio (Long diameter/Short diameter) ([4]; crystal ⑩ of 10 selected, listed as 7): 2.0

Structure (SMILES): O=C[C@H](O)[C@H](O)[C@H](O)[C@H](O)CO [Test No. 8, D-allose]
- Repose angle (degrees) ([1]; anhydrous crystals of Test Nos. 1 to 12, hydrous crystals dried with evaporator (30° C., 20 hPa (abs), about 2 hours), average of three directions, listed as 8): 41.7 degrees
- d [4, 3] (volume-based average particle size) ([3]; listed as 8): 708 μm
- Aspect ratio (Long diameter/Short diameter) ([4]; crystal ① of 10 selected, listed as 8): 3.5
- Aspect ratio (Long diameter/Short diameter) ([4]; crystal ② of 10 selected, listed as 8): 7.7
- Aspect ratio (Long diameter/Short diameter) ([4]; crystal ③ of 10 selected, listed as 8): 2.0
- Aspect ratio (Long diameter/Short diameter) ([4]; crystal ④ of 10 selected, listed as 8): 3.6
- Aspect ratio (Long diameter/Short diameter) ([4]; crystal ⑤ of 10 selected, listed as 8): 3.1
- Aspect ratio (Long diameter/Short diameter) ([4]; crystal ⑥ of 10 selected, listed as 8): 2.8
- Aspect ratio (Long diameter/Short diameter) ([4]; crystal ⑦ of 10 selected, listed as 8): 3.8
- Aspect ratio (Long diameter/Short diameter) ([4]; crystal ⑧ of 10 selected, listed as 8): 4.7
- Aspect ratio (Long diameter/Short diameter) ([4]; crystal ⑨ of 10 selected, listed as 8): 1.7
- Aspect ratio (Long diameter/Short diameter) ([4]; crystal ⑩ of 10 selected, listed as 8): 3.3

Structure (SMILES): O=C[C@H](O)[C@H](O)[C@H](O)[C@H](O)CO [Test No. 9, D-allose]
- Repose angle (degrees) ([1]; anhydrous crystals of Test Nos. 1 to 12, hydrous crystals dried with evaporator (30° C., 20 hPa (abs), about 2 hours), average of three directions, listed as 9): 41.0 degrees
- d [4, 3] (volume-based average particle size) ([3]; listed as 9): 600 μm
- Aspect ratio (Long diameter/Short diameter) ([4]; crystal ① of 10 selected, listed as 9): 6.2
- Aspect ratio (Long diameter/Short diameter) ([4]; crystal ② of 10 selected, listed as 9): 4.3
- Aspect ratio (Long diameter/Short diameter) ([4]; crystal ③ of 10 selected, listed as 9): 5.7
- Aspect ratio (Long diameter/Short diameter) ([4]; crystal ④ of 10 selected, listed as 9): 3.0
- Aspect ratio (Long diameter/Short diameter) ([4]; crystal ⑤ of 10 selected, listed as 9): 3.5
- Aspect ratio (Long diameter/Short diameter) ([4]; crystal ⑥ of 10 selected, listed as 9): 5.9
- Aspect ratio (Long diameter/Short diameter) ([4]; crystal ⑦ of 10 selected, listed as 9): 4.6
- Aspect ratio (Long diameter/Short diameter) ([4]; crystal ⑧ of 10 selected, listed as 9): 2.6
- Aspect ratio (Long diameter/Short diameter) ([4]; crystal ⑨ of 10 selected, listed as 9): 3.6
- Aspect ratio (Long diameter/Short diameter) ([4]; crystal ⑩ of 10 selected, listed as 9): 1.9

Structure (SMILES): O=C[C@H](O)[C@H](O)[C@H](O)[C@H](O)CO [Test No. 10, D-allose]
- Repose angle (degrees) ([1]; anhydrous crystals of Test Nos. 1 to 12, hydrous crystals dried with evaporator (30° C., 20 hPa (abs), about 2 hours), average of three directions, listed as 10): 41.3 degrees
- d [4, 3] (volume-based average particle size) ([3]; listed as 10): 492 μm
- Aspect ratio (Long diameter/Short diameter) ([4]; crystal ① of 10 selected, listed as 10): 1.6
- Aspect ratio (Long diameter/Short diameter) ([4]; crystal ② of 10 selected, listed as 10): 3.9
- Aspect ratio (Long diameter/Short diameter) ([4]; crystal ③ of 10 selected, listed as 10): 5.6
- Aspect ratio (Long diameter/Short diameter) ([4]; crystal ④ of 10 selected, listed as 10): 2.1
- Aspect ratio (Long diameter/Short diameter) ([4]; crystal ⑤ of 10 selected, listed as 10): 4.0
- Aspect ratio (Long diameter/Short diameter) ([4]; crystal ⑥ of 10 selected, listed as 10): 9.6
- Aspect ratio (Long diameter/Short diameter) ([4]; crystal ⑦ of 10 selected, listed as 10): 2.3
- Aspect ratio (Long diameter/Short diameter) ([4]; crystal ⑧ of 10 selected, listed as 10): 3.3
- Aspect ratio (Long diameter/Short diameter) ([4]; crystal ⑨ of 10 selected, listed as 10): 4.6
- Aspect ratio (Long diameter/Short diameter) ([4]; crystal ⑩ of 10 selected, listed as 10): 5.4

Structure (SMILES): O=C[C@H](O)[C@H](O)[C@H](O)[C@H](O)CO [Test No. 12, D-allose]
- Repose angle (degrees) ([1]; anhydrous crystals of Test Nos. 1 to 12, hydrous crystals dried with evaporator (30° C., 20 hPa (abs), about 2 hours), average of three directions, listed as 12): 41.3 degrees
- d [4, 3] (volume-based average particle size) ([3]; listed as 12): 333 μm
- Aspect ratio (Long diameter/Short diameter) ([4]; crystal ① of 10 selected, listed as 12): 3.1
- Aspect ratio (Long diameter/Short diameter) ([4]; crystal ② of 10 selected, listed as 12): 3.3
- Aspect ratio (Long diameter/Short diameter) ([4]; crystal ③ of 10 selected, listed as 12): 4.2
- Aspect ratio (Long diameter/Short diameter) ([4]; crystal ④ of 10 selected, listed as 12): 3.8
- Aspect ratio (Long diameter/Short diameter) ([4]; crystal ⑤ of 10 selected, listed as 12): 3.6
- Aspect ratio (Long diameter/Short diameter) ([4]; crystal ⑥ of 10 selected, listed as 12): 4.4
- Aspect ratio (Long diameter/Short diameter) ([4]; crystal ⑦ of 10 selected, listed as 12): 4.7
- Aspect ratio (Long diameter/Short diameter) ([4]; crystal ⑧ of 10 selected, listed as 12): 3.7
- Aspect ratio (Long diameter/Short diameter) ([4]; crystal ⑨ of 10 selected, listed as 12): 3.7
- Aspect ratio (Long diameter/Short diameter) ([4]; crystal ⑩ of 10 selected, listed as 12): 1.3
